Data from US6677368B2, “4-aryl substituted indolinones” (Sugen, Inc., priority 2000, dated 2004).

Tests used:
[1] = target: FGFR1 (Homo sapiens, UniProt P11362); test: FGFR1 bioassay (ELISA, in vitro kinase activity); type: biochemical; conditions: purified GST-FGFR1, poly(Glu-Tyr) substrate
Method: This assay is used to measure the in vitro kinase activity of FGF1-R in an ELISA assay.
1. Costar 96-well ELISA plates (Corning Catalog #3369).
2. Poly(Glu-Tyr) (Sigma Catalog #P0275).
4. 50 mM Hepes Buffer Solution.
5. Blocking Buffer (5% BSA/PBS).
6. Purified GST-FGFR1 (SUGEN, Inc.)
7. Kinase Dilution Buffer. Mix 500 μl 1M Hepes (GIBCO), 20 μl 5% BSA/PBS, 10 μl 100 mM sodium orthovanadate and 50 μl 5M NaCl.
9. ATP/MnCl2 phosphorylation mix: mix 20 μL ATP, 400 μL 1M MnCl2 and 9.56 ml dH2O.
10. NUNC 96-well V bottom polypropylene plates (Applied Scientific Catalog #AS-72092).
12. 0.05% TBST Add 500 μL TWEEN to 1 liter TBS.
13. Rabbit polyclonal anti-phosphotyrosine serum (SUGEN, Inc.).
14. Goat anti-rabbit IgG peroxidase conjugate (Biosource, Catalog #ALI0404).
1. Coat Costar 96 well ELISA plates with 1 μg per well Poly(Glu-Tyr) in 100 μl PBS. Store overnight at 4° C.
2. Wash coated plates once with PBS.
3. Add 150 μL of 5%BSA/PBS Blocking Buffer to each well. Incubate, with shaking, for 1 hr at room temperature.
4. Wash plate 2× with PBS, then once with 50 mM Hepes. Pat plates on a paper towel to remove excess liquid and bubbles.
5. Add 25 μL of 0.4 mM test compound in 4% DMSO or 4% DMSO alone (controls) to plate.
6. Dilute purified GST-FGFR1 in Kinase Dilution Buffer (5 ng kinase/50 μl KDB/well).
7. Add 50 μL of diluted kinase to each well.
8. Start kinase reaction by adding 25 μl/well of freshly prepared ATP/Mn++ (0.4 ml 1M MnCl2, 40 μL 10 mM ATP, 9.56 ml dH2O), freshly prepared).
9. Stop reaction with 25 μL of 0.5M EDTA.
10. Wash plate 4× with fresh TBST.
11. Make up Antibody Dilution Buffer: For 50 ml, mix 5 ml of 5% BSA, 250 μl of 5% milk and 50 μl of 100 mM sodium vanadate, bring to final volume with 0.05% TBST.
12. Add 100 μl per well of anti-phosphotyrosine (1:10000 dilution in ADB). Incubate, with shaking for 1 hr. at room temperature.
14. Add 100 μl per well of Biosource Goat anti-rabbit IgG peroxidase conjugate (1:6000 dilution in ADB). Incubate, with shaking for 1 hr. at room temperature.
15. Wash as in step 10 and then with PBS to remove bubbles and excess TWEEN.
16. Add 100 μl of ABTS/H2O2 solution to each well.
17. Incubate, with shaking, for 10 to 20 minutes. Remove any bubbles.
18. Read assay on Dynatech MR7000 ELISA reader: test filter at 410 nM, reference filter at 630 nM.

[2] = target: T1, MET (Homo sapiens, UniProt P08581); test: MET transphosphorylation assay; type: biochemical; conditions: GST fusion protein containing the Met kinase domain, poly(glu-tyr) substrate
T1 construct: Purified GST fusion protein containing the Met kinase domain, SUGEN, Inc
Method: MET TRANSPHOSPHORYLATION ASSAY
This assay is used to measure phosphotyrosine levels on a poly(glutamic acid:tyrosine, 4:1) substrate as a means for identifying agonists/antagonists of met transphosphorylation of the substrate.
1. Corning 96-well ELISA plates, Corning Catalog #25805-96.
2. Poly(glu-tyr), 4:1, Sigma, Cat. No; P 0275.
5. Blocking Buffer: Dissolve 25 g Bovine Serum Albumin, Sigma Cat. No A-7888, in 500 ml PBS, filter through a […] filter.
6. Purified GST fusion protein containing the Met kinase domain, SUGEN, Inc.
8. 10% aqueous (MilliQue H2O) DMSO.
9. 10 mM aqueous (dH2O) Adenosine-5′-triphosphate, Sigma Cat. No. A-5394.
10. 2×Kinase Dilution Buffer: for 100 ml, mix 10 mL 1M HEPES at pH 7.5 with 0.4 mL 5% BSA/PBS, 0.2 mL 0.1 M sodium orthovanadate and 1 mL 5M sodium chloride in 88.4 mL dH2O.
11. 4×ATP Reaction Mixture: for 10 mL, mix 0.4 mL 1 M manganese chloride and 0.02 mL 0.1 M ATP in 9.56 mL dH2O.
12. 4×Negative Controls Mixture: for 10 mL, mix 0.4 mL 1 M manganese chloride in 9.6 mL dH2O.
13. NUNC 96-well V bottom polypropylene plates, Applied Scientific Catalog #S-72092
15. Antibody Dilution Buffer: for 100 mL, mix 10 mL 5% BSA/PBS, 0.5 mL 5% Carnation® Instant Milk in PBS and 0.1 mL 0.1 M sodium orthovanadate in 88.4 mL TBST.
16. Rabbit polyclonal antophosphotyrosine antibody, SUGEN, Inc.
17. Goat anti-rabbit horseradish peroxidase conjugated antibody, Biosource, Inc.
18. ABTS Solution: for 1 L, mix 19.21 g citric acid, 35.49 g Na2HPO4 and 500 mg ABTS with sufficient dH2O to make 1 L.
19. ABTS/H2O2: mix 15 mL ABST solution with 2μL H2O2 five minutes before use.
1. Coat ELISA plates with 2 μg Poly(Glu-Tyr) in 100 μL PBS, hold overnight at 4° C.
2. Block plate with 150 μL of 5% BSA/PBS for 60 min.
3. Wash plate twice with PBS then once with 50 mM Hepes buffer pH 7.4.
4. Add 50 μl of the diluted kinase to all wells. (Purified kinase is diluted with Kinase Dilution Buffer. Final concentration should be 10 ng/well.)
5. Add 25 μL of the test compound (in 4% DMSO) or DMSO alone (4% in dH2O) for controls to plate.
6. Incubate the kinase/compound mixture for 15 minutes.
7. Add 25 μL of 40 mM MnCl2 to the negative control wells.
8. Add 25 μL ATP/MnCl2 mixture to the all other wells (except the negative controls). Incubate for 5 min.
9. Add 25 μL 500 mM EDTA to stop reaction.
10. Wash plate 3× with TBST.
11. Add 100 μL rabbit polyclonal anti-Ptyr diluted 1:10,000 in Antibody Dilution Buffer to each well. Incubate, with shaking, at room temperature for one hour.
12. Wash plate 3× with TBST.
13. Dilute Biosource HRP conjugated anti-rabbit antibody 1:6,000 in Antibody Dilution buffer. Add 100 μL per well and incubate at room temperature, with shaking, for one hour.
14. Wash plate 1× with PBS.
15. Add 100 μl of ABTS/H2O2 solution to each well.
16. If necessary, stop the development reaction with the addition of 100 μl of 0.2M HCl per well.
17. Read plate on Dynatech MR7000 ELISA reader with the test filter at 410 nM and the reference filter at 630 nM.

T1 sequence (P08581 1078-1345 limits assumed): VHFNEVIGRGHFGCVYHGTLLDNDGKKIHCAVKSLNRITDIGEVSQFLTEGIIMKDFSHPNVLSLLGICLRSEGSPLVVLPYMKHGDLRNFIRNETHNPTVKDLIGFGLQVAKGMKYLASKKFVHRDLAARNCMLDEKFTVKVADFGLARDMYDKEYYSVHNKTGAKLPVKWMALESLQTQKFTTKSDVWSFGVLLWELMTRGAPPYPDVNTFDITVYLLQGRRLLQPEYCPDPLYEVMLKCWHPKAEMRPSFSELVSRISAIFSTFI
Sequence of FGFR1 (P11362 22-822, species assumed): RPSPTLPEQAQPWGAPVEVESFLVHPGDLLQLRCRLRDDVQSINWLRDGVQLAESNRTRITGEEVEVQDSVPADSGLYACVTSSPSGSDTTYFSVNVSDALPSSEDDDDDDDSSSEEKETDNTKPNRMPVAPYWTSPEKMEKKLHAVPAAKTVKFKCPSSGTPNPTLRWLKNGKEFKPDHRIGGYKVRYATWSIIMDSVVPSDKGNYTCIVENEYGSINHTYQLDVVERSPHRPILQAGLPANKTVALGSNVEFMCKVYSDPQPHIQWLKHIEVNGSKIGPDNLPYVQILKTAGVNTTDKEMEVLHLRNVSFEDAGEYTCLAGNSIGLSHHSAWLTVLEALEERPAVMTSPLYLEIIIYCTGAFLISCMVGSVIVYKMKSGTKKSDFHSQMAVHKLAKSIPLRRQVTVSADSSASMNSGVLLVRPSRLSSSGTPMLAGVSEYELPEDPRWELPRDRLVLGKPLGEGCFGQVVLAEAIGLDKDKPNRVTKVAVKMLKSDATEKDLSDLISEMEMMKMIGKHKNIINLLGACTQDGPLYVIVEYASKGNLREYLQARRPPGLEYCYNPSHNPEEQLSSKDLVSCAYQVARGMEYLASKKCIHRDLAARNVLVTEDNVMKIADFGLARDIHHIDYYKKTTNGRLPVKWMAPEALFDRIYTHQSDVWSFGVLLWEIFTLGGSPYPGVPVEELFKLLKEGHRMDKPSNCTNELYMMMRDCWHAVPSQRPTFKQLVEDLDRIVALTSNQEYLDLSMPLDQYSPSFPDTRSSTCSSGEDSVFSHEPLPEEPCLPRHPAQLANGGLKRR

Row | IC50 [1] [nM] | IC50 [2] [nM] | SMILES
1 | 80 | 110 | COc1ccc(-c2cccc3c2/C(=C/c2[nH]c(C)c(C(=O)NCCN4CCCC4)c2C)C(=O)N3)cc1 [Example 38, 5-[4-(4-Methoxy-phenyl)-2-oxo-1,2-dihydro-indol-3-ylidenemethyl]-2,4-dimethyl-1H-pyrrole-3-carboxylic Acid (2-Pyrrolidin-1-yl-ethyl)-amide]
2 | 190 | 270 | COc1ccc(-c2cccc3c2/C(=C/c2[nH]c(C)c(C(=O)N4C[C@@H](C)N[C@@H](C)C4)c2C)C(=O)N3)cc1 [Example 40, 3-[4-((cis)-3,5-Dimethyl-piperazine-1-carbonyl)-3,5-dimethyl-1H-pyrrol-2-ylmethylene]-4-(4-methoxy-phenyl)-1,3-dihydro-indol-2-one]
3 | 560 | 320 | COc1ccc(-c2cccc3c2/C(=C/c2[nH]c(C)cc2C(=O)NCCN2CCCC2)C(=O)N3)cc1 [Example 41, 2-[4-(4-Methoxy-phenyl)-2-oxo-1,2-dihydro-indol-3-ylidenemethyl]-5-methyl-1H-pyrrole-3-carboxylic Acid (2-Pyrrolidin-1-yl-ethyl)-amide]
4 | 22 | 120 | CCN(CC)CCNC(=O)c1c(C)[nH]c(/C=C2\C(=O)Nc3cccc(-c4cccc(OC)c4)c32)c1C [Example 46, 5-[4-(3-Methoxy-phenyl)-2-oxo-1,2-dihydro-indol-3-ylidenemethyl]-2,4-dimethyl-1H-pyrrole-3-carboxylic Acid (2-Diethylamino-ethyl)-amide]
5 | 600 | 1060 | COc1cccc(-c2cccc3c2/C(=C/c2[nH]c(C)c(C(=O)NCCn4ccnn4)c2C)C(=O)N3)c1 [Example 48, 5-[4-(3-Methoxy-phenyl)-2-oxo-1,2-dihydro-indol-3-ylidenemethyl]-2,4-dimethyl-1H-pyrrole-3-carboxylic Acid (2-[1,2,3]Triazol-1-yl-ethyl)-amide]
6 | 35 | 92 | COc1cccc(-c2cccc3c2/C(=C/c2[nH]c(C)c(C(=O)NCCN(C(C)C)C(C)C)c2C)C(=O)N3)c1 [Example 52, 5-[4-(3-Methoxy-phenyl)-2-oxo-1,2-dihydro-indol-3-ylidenemethyl]-2,4-dimethyl-1H-pyrrole-3-carboxylic Acid (2-Diisopropylamino-ethyl)-amide]
7 | 1150 | 290 | Cc1[nH]c(/C=C2\C(=O)Nc3cccc(-c4ccc(Br)cc4)c32)c(C)c1C(=O)N1CCN(C)CC1 [Example 53]
8 | 260 | 420 | Cc1[nH]c(/C=C2\C(=O)Nc3cccc(-c4ccc(Br)cc4)c32)c(C)c1C(=O)N1C[C@@H](C)N[C@@H](C)C1 [Example 57, 4-(4-Bromo-phenyl)-3-[4-[(cis)-3,5-dimethyl-piperazine-1-carbonyl)-3,5-dimethyl-1H-pyrrol-2-ylmethylene]-1,3-dihydro-indol-2-one]
9 | 250 | 73 | Cc1cc(C(=O)NCCN2CCCC2)c(/C=C2\C(=O)Nc3cccc(-c4ccc(Br)cc4)c32)[nH]1 [Example 58, 2-[4-(4-Bromo-phenyl)-2-oxo-1,2-dihydro-indol-3-ylidenemethyl]-5-methyl-1H-pyrrole-3-carboxylic Acid (2-Pyrrolidin-1-yl-ethyl)-amide]
10 | 150 | 250 | Cc1[nH]c(/C=C2\C(=O)Nc3cccc(-c4ccc(Br)cc4)c32)c(C)c1C(=O)NCCN(C(C)C)C(C)C [Example 60, 5-[4-(4-Bromo-phenyl)-2-oxo-1,2-dihydro-indol-3-ylidenemethyl]-2,4-dimethyl-1H-pyrrole-3-carboxylic Acid (2-Diisopropylamino-ethyl)-amide]
11 | 21 | 110 | CCN(CC)CCNC(=O)c1c[nH]c(/C=C2\C(=O)Nc3cccc(-c4ccc(Br)cc4)c32)c1C [Example 61, 5-[4-(4-Bromo-phenyl)-2-oxo-1,2-dihydro-indol-3-ylidenemethyl]-4-methyl-1H-pyrrole-3-carboxylic Acid (2-Diethylamino-ethyl)-amide]
12 | 240 | 43 | CCN(CC)CCNC(=O)c1c(C)[nH]c(/C=C2\C(=O)Nc3cccc(-c4cccc(Br)c4)c32)c1C [Example 63, 5-[4-(3-Bromo-phenyl)-2-oxo-1,2-dihydro-indol-3-ylidenemethyl]-2,4-dimethyl-1H-pyrrole-3-carboxylic Acid (2-Diethylamino-ethyl)-amide]
13 | 83 | 80 | Cc1[nH]c(/C=C2\C(=O)Nc3cccc(-c4ccccc4F)c32)c(C)c1C(=O)N1CCN(C)CC1 [Example 93, 3-[3,5-Dimethyl-4-(4-methyl-piperazine-1-carbonyl)-1H-pyrrol-2-ylmethylene]-4-(2-fluoro-phenyl)-1,3-dihydro-indol-2-one]
14 | 610 | 180 | Cc1cc(C(=O)NCCn2ccnn2)c(/C=C2\C(=O)Nc3cccc(-c4ccccc4F)c32)[nH]1 [Example 99, 2-[4-(2-Fluoro-phenyl)-2-oxo-1,2-dihydro-indol-3-ylidenemethyl]-5-methyl-1H-pyrrole-3-carboxylic Acid (2-[1,2,3]Triazol-1-yl-ethyl)-amide]
15 | 300 | 580 | Cc1[nH]c(/C=C2\C(=O)Nc3cccc(-c4cccc(C(F)(F)F)c4)c32)c(C)c1C(=O)N1CCN(C)CC1 [Example 104, 3-[3,5-Dimethyl-4-(4-methyl-piperazine-1-carbonyl)-H-pyrrol-2-ylmethylene]-4-(3-trifluoromethyl-phenyl)-1,3-dihydro-indol-2-one]
